Test results taken from ChEMBL document CHEMBL3046746, “Introduction to Receptors in Aging Diseases: GABA Receptors” (Med Chem Res, 2004).
pEC50, pKi: −log10 of the molar value. Activity calls are given as the source filed them. No cut-off for these calls is given here.

How the values were obtained:
[1] = tested on: Rattus norvegicus; test: Cognitive enhancing effect in Rattus norvegicus (rat) at 0.3 mg/kg, ip by water maze test; format: functional, organism-based; set-up: dose 0.3 mg/kg
[2] = molecular target: GABA-A receptor; alpha-5/beta-3/gamma-2 (Homo sapiens) (UniProt P18507+P28472+P31644); test: Modulation of GABAA alpha5beta3gamma2 in Homo sapiens (human) L(tk-) cells patch clamp assay relative to GABA
[3] = molecular target: T1, GABA-A receptor; alpha-5/beta-3/gamma-2 (Homo sapiens, UniProt P18507+P28472+P31644); test: Inverse agonist activity at GABAA alpha5beta3gamma2 in Homo sapiens (human) L(tk-) cells by patch clamp assay
T1 sequence (P18507 whole entry): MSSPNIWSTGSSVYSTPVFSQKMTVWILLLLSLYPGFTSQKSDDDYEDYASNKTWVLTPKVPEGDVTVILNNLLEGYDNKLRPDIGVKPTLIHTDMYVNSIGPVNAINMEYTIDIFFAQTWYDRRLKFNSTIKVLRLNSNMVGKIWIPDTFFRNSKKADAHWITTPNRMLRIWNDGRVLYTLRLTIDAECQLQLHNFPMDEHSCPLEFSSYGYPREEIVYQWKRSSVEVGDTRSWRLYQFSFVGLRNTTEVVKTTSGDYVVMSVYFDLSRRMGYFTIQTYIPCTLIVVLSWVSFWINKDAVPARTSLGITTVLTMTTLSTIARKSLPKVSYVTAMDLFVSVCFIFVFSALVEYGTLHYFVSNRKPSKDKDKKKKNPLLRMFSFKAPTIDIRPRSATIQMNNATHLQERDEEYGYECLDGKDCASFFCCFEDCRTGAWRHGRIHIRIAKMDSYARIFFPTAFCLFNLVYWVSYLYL
T1 sequence (P28472 whole entry): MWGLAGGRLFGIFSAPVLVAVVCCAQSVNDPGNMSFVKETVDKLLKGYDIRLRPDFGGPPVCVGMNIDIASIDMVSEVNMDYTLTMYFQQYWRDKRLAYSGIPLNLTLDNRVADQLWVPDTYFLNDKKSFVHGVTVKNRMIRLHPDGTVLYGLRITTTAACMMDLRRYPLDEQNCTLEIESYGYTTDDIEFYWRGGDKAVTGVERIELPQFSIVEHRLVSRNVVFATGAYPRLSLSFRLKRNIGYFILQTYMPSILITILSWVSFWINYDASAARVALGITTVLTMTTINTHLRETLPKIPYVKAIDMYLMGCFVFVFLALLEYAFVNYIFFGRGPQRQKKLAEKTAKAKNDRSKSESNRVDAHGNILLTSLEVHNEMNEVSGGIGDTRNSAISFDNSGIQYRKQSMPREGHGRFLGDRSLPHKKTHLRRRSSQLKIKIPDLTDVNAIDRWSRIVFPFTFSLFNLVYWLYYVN
T1 sequence (P31644 whole entry): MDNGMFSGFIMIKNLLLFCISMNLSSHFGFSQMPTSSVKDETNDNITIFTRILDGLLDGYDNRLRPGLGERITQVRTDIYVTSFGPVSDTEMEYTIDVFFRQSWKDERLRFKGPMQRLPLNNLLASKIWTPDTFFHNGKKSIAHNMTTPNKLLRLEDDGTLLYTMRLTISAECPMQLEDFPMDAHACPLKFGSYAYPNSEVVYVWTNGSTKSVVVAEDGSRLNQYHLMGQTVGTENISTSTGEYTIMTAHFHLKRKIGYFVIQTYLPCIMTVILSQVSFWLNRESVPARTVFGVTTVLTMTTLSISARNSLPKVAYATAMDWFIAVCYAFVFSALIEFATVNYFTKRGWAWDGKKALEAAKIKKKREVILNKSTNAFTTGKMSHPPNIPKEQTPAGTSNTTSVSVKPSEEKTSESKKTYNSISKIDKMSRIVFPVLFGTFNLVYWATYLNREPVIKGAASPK

[4] = molecular target: GABA-A receptor; alpha-1/beta-3/gamma-2 (Homo sapiens) (UniProt P14867+P18507+P28472); test: Modulation of GABA-Aalpha1beta3gamma2 in Homo sapiens (human) L(tk-) cells relative to GABA
[5] = molecular target: GABA-A receptor; alpha-2/beta-3/gamma-2 (Homo sapiens) (UniProt P18507+P28472+P47869); test: Antagonist activity at GABAA alpha2beta3gamma2 in Homo sapiens (human) L(tk-) cells by patch clamp assay relative to GABA
[6] = molecular target: T2, Gamma-aminobutyric acid receptor subunit alpha-3/ beta-3/gamma-3 (Homo sapiens, UniProt P28472+P34903+Q99928); test: Binding affinity to GABAA alpha3beta3gamma3 (unknown origin); format: protein-complex assay
T2 sequence (P28472 whole entry): T1 sequence (P28472 whole entry)
T2 sequence (Q99928 whole entry): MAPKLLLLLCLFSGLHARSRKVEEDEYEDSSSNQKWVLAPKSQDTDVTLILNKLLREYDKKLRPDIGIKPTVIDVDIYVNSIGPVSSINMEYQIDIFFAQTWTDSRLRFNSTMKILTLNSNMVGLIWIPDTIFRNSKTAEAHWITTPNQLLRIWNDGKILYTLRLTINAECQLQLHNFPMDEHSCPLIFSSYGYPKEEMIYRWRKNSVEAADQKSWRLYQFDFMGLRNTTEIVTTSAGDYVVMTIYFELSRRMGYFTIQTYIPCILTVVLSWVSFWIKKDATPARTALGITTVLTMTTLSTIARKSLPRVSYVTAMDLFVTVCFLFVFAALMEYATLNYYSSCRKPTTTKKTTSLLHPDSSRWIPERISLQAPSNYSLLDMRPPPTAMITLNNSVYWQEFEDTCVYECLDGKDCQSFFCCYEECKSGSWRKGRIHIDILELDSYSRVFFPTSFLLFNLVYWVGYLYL
T2 sequence (P34903 whole entry): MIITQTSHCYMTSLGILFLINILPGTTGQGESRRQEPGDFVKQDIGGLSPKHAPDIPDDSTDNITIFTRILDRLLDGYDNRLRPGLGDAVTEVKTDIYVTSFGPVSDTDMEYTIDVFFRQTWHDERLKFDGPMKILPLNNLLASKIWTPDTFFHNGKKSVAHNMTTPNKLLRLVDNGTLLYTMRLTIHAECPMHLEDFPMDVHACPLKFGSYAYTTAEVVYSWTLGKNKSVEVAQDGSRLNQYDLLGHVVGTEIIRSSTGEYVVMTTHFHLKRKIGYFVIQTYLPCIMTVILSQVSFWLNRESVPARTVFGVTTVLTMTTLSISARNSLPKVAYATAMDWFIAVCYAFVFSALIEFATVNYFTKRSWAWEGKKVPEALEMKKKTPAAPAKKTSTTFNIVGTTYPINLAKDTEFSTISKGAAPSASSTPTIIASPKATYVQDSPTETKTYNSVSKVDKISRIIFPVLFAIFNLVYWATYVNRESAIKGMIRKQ

[7] = species on record: Homo sapiens; test: Selectivity ratio of Ki for GABAA alpha2beta3gamma2 (unknown origin) to Ki for GABAA alpha5beta3gamma2 (unknown origin)
[8] = tested on: Rattus norvegicus; test: In vivo GABAA alpha5beta3gamma2 receptor occupancy in Rattus norvegicus (rat) assessed as inhibition of [3H]L-655,708 binding at 0.3 mg/kg, ip; format: functional; details: route intraperitoneal
[9] = species on record: Homo sapiens; test: Selectivity ratio of Ki for GABA-Aalpha1beta3gamma2 (unknown origin) to Ki for GABAA alpha5beta3gamma2 (unknown origin)
[10] = molecular target: Gamma-aminobutyric acid receptor subunit alpha-3/ beta-3/gamma-3 (Homo sapiens) (UniProt P28472+Q99928+P34903); test: Antagonist activity at GABAA alpha3beta3gamma3 in Homo sapiens (human) L(tk-) cells relative to GABA
[11] = species on record: Homo sapiens; test: Selectivity ratio of Ki for GABAA alpha3beta3gamma3 (unknown origin) to Ki for GABAA alpha5beta3gamma2 (unknown origin)

SMILES: CC1(C)CC(=O)c2c(SCCO)sc(-c3nccs3)c2C1
- Activity [1]: Active
- Emax [2]: -51%
- pEC50 [3]: 9.15
- Efficacy [4]: -21%
- Activity [5]: Active
- pKi [6]: 7.70
- Ratio Ki [7]: 10
- Occ [8]: 40%
- Ratio Ki [9]: 10
- Activity [10]: Active
- Ratio Ki [11]: 10
